Laboratory results published in patent US9487506B2, “Mineralocorticoid receptor antagonists” (Merck Sharp & Dohme Corp., priority 2011, dated 2016).

The molecules below were run against T1, full-length human Mineralocorticoid Receptor (MR) (Homo sapiens, UniProt P08235) (assay: human MR NH Pro assay (PathHunter Protein:Protein interaction assay), MR antagonist activity). Settings: PathHunter CHO-K1 cells overexpressing human MR; aldosterone 0.3 nM to about 1 nM; 6 hours at 37° C.; luminescence; read-out: IP (rating); IP is the inflection point for a given dose-response titration curve.
T1 construct: host or cells: PathHunter CHO-K1 cells
T1 sequence (P08235 1-984): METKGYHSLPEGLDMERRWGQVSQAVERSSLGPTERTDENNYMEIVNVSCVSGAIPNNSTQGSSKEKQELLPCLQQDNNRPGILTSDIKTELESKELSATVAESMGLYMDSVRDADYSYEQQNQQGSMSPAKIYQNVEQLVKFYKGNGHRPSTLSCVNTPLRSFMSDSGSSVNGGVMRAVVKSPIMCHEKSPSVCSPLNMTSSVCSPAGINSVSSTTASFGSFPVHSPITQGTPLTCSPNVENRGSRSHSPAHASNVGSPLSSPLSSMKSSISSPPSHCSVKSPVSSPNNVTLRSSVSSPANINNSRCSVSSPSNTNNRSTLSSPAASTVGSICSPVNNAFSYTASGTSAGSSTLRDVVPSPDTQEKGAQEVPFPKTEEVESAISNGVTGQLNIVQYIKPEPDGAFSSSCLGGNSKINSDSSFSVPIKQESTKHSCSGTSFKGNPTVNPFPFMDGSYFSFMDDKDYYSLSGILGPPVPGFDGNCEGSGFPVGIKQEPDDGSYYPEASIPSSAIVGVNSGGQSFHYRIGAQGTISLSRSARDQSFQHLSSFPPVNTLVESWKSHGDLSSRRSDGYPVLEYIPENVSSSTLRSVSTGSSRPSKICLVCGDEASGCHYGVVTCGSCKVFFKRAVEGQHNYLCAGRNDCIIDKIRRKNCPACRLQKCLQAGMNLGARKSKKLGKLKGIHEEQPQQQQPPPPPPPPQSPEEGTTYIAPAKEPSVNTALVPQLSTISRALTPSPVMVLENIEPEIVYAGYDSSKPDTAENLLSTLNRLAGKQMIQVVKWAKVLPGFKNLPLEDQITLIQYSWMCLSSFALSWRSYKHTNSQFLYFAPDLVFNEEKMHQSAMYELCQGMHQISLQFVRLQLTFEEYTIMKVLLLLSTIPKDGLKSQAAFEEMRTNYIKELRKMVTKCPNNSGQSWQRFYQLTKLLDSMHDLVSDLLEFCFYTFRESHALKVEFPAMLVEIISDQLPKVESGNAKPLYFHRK
Type: cell-based
Source text: The activity of the compounds of the present invention regarding mineralocorticoid receptor antagonism can be evaluated using the following assay.
Assessment of MR Potency in HMR NH Pro Assay
The human MR NH Pro assay is a commercially available PathHunter™ Protein:Protein interaction assay (DiscoveRx; http://www.discoverx.com/nhrs/prod-nhrs.php) that measures the ability of compounds to antagonize full-length human Mineralocorticoid Receptor (MR) binding to a coactivator peptide. PathHunter™ CHO-K1 cells that overexpress human MR (Cat #93-0456C2, Lot No: 09B0913) were cultured in growth media (F12K w/Glutamine and phenol red (Gibco 11765-047) supplemented with 10% HI FBS (Gibco 16000); 0.25 mg/ml Hygromycin in PBS (Invitrogen 10687-010, 50 mg/ml); 100 I.U./mL and 100 μg/mL Pen/Strep (Gibco 15140-122); 0.6 mg/mL Geneticin (Gibco 10131-027).
Compounds were assessed for MR antagonist activity by incubating the cells with a titrating dose of compound in F12K w/Glutamine and phenol red culture media (Invitrogen 11765-047) supplemented with 1% Charcoal/Dextran Treated FBS (Hyclone #SH30068.01) and aldosterone (0.3 nM to about 1 nM) for 6 hours at 37° C. Cells were then treated with DiscoveRx detection reagent for 1 hour at room temperature and read using an Envision luminescence plate reader. % activity was measured relative to cells treated with aldosterone alone and IC50 values were calculated using ADA software.
Stock solution was prepared at 10 μM in DMSO and stored at −20° C. for assay, dilute in assay media to 1.8 or 6 nM (6× of final concentration=about 0.3 nM to about 1.0 nM)
5. Cell line: PathHunter CHO-K1 MR cells Cat #93-0456C2, Lot No: 09B0913, from operation liquid nitrogen stock.
3. The cells concentration was adjusted to 4×10^5 cells/mL.
4. Cells were (25 μL/well) added to the wells of a 384 well plate.
5. The plate was then incubated at 37° C. over night in a humidified incubator with 5% CO2.
6. Test compounds were titrated starting at 4.4 mM, 10-point titration in 1:3 dilution.
7. Aldosterone was diluted in assay media to 1.8 nM or 6 nM from 10 μM stock (final concentration to be about 0.3 nM to about 1.0 nM)
1. 10K exponentially growing cells/well (25 μL) were resuspended in assay media and plated into each well using the Multidrop (Thermo Electron) (use white wall, clear bottom assay plates (Costar #3570) and incubated overnight at 37° C., 5% CO2.
2. 0.25 μL 120× test compound (final DMSO concentration should be <1%) was added to each well n=2, 10 point titrations starting at 36.7 μM final concentration.
3. 5 μL of 6× agonist (final aldosterone concentration should be about 0.3 nM to about 1.0 nM) was added to all wells (using the PlateMate Plus; (ThermoFisher) (except those wells in columns 23 and 24)
4. 5 μL of assay media was added to all wells in column 23 and 24.
5. Cells were then incubated for 6 hrs at 37° C., 5% CO2.
6. 15 μL 3× DiscoveRx detection reagent was then added to each well.
7. Plates were incubated for 1 hour at room temperature in the dark.
8. Plates were read on Envision (PerkinElmer) luminesence plate reader and analyzed using ADA.

Row | IC50 [nM] | Compound
1 | 500 to 6000 | COC(=O)CCn1nc(C(CCC#N)c2ccc(Cl)cc2F)c2ccccc21 (stereo not drawn) [Example 17C, Methyl 3-{3-[1-(4-chloro-2-fluorophenyl)-3-cyanopropyl]-1H-indazol-1-yl}propanoate]
2 | 500 to 6000 | CCn1nc(C(CCC#N)c2ccc(Cl)cc2F)c2ccccc21 (stereo not drawn) [Example 14, 4-(4-chloro-2-fluorophenyl)-4-(1-ethyl-1H-indazol-3-yl)butanenitrile]
3 | 500 to 6000 | CC(C)(C)OC(=O)Cn1nc(C(CCC#N)c2ccc(Cl)cc2F)c2ccccc21 (stereo not drawn) [Example 17B, tert-Butyl {3-[1-(4-chloro-2-fluorophenyl)-3-cyanopropyl]-1H-indazol-1-yl}acetate]
4 | 500 to 6000 | Clc1ccc(Cc2nn(Cc3ccccc3)c3ccccc23)cc1 [Example 21, 3-(4-chlorobenzyl)-1-benzyl-1H-indazole]
5 | 500 to 6000 | Cn1nc(C(CCC#N)c2ccc(Cl)cc2F)c2ccccc21 (stereo not drawn) [Example 13, 4-(4-chloro-2-fluorophenyl)-4-(1-methyl-1H-indazol-3-yl)butanenitrile]
6 | 100 to 500 | CCC(CC)(c1ccc(Cl)cc1)c1nn(CC(=O)OC)c2ccccc12 [Example 19, methyl {3-[1-(4-chlorophenyl)-1-ethylpropyl]-1H-indazol-1-yl}acetate]
7 | 500 to 6000 | COCCn1nc(C(CCC#N)c2ccc(Cl)cc2F)c2ccccc21 (stereo not drawn) [Example 17F, 4-(4-chloro-2-fluorophenyl)-4-[1-(2-methoxyethyl)-1H-indazol-3-yl]butanenitrile]
8 | 500 to 6000 | COC(=O)Cn1nc(C(CCC#N)c2ccc(Cl)cc2F)c2ccccc21 (stereo not drawn) [Example 17A, methyl {3-[1-(4-chloro-2-fluorophenyl)-3-cyanopropyl]-1H-indazol-1-yl}acetate]
9 | 500 to 6000 | N#CCCC(c1ccc(Cl)cc1F)c1nn(Cc2ccccc2)c2ccccc12 (stereo not drawn) [Example 16, 4-(1-benzyl-1H-indazol-3-yl)-4-(4-chloro-2-fluorophenyl)butanenitrile]
10 | 500 to 6000 | CCCn1nc(C(CCC#N)c2ccc(Cl)cc2F)c2ccccc21 (stereo not drawn) [Example 15, 4-(4-chloro-2-fluorophenyl)-4-(1-propyl-1H-indazol-3-yl)butanenitrile]

Further lines, the molecule ahead of its results:

Row | Compound | IC50 [nM]
11 | CCC(CO)(c1ccc(Cl)cc1)c1n[nH]c2c(NS(C)(=O)=O)cccc12 (stereo not drawn) [Compound 25, N-(3-(2-(4-chlorophenyl)-1-hydroxybutan-2-yl)-1H-indazol-7-yl)methane sulfonamide] | < 100
12 | N#CCCC(c1ccc(Cl)cc1F)c1n[nH]c2c(NS(=O)(=O)C3CC3)cccc12 (stereo not drawn) [Example 7, N-{3-[1-(4-chloro-2-fluorophenyl)-3-cyanopropyl]-1H-indazol-7-yl}cyclopropanesulfonamide] | 500 to 6000
13 | Fc1cc(Cl)ccc1Cc1n[nH]c2ccccc12 [Example 1, 3-(4-chloro-2-fluorobenzyl)-1H-indazole] | 500 to 6000
14 | CC(C)(O)CCC(c1ccc(Cl)cc1F)c1n[nH]c2c(NS(C)(=O)=O)cccc12 (stereo not drawn) [Example 10, n-{3-[1-(4-chloro-2-fluorophenyl)-4-hydroxy-4-methylpentyl]-1H-indazol-7-yl}methanesulfonamide] | 500 to 6000
15 | CCC(c1ccc(Cl)cc1)(c1n[nH]c2c(NS(C)(=O)=O)cccc12)C(C)O (single isomer, unassigned; diastereoisomer a) [Compound 24A, N-(3-(3-(4-chlorophenyl)-2-hydroxypentan-3-yl)-1H-indazol-7-yl)methane sulfonamide(diastereoisomer A)] | < 100
16 | N#CCCC(c1ccc(Cl)cc1F)c1n[nH]c2c(-c3cccnc3)cccc12 (stereo not drawn) [Example 3, 4-(4-chloro-2-fluorophenyl)-4-(7-pyridin-3-yl-1H-indazol-3-yl)butanenitrile] | 500 to 6000
17 | N#CCCC(c1ccc(Cl)cc1F)c1n[nH]c2c(-c3ccncc3)cccc12 (stereo not drawn) [Example 4, 4-(4-chloro-2-fluorophenyl)-4-(7-pyridin-4-yl-1H-indazol-3-yl)butanenitrile] | 500 to 6000
18 | N#CCCC(c1ccc(Cl)cc1F)c1n[nH]c2ccccc12 (stereo not drawn) [Example 12, 4-(4-chloro-2-fluorophenyl)-4-(1H-indazol-3-yl)butanenitrile] | 500 to 6000
19 | CS(=O)(=O)Nc1cccc2c(C(CCCO)c3ccc(Cl)cc3F)n[nH]c12 (stereo not drawn) [Example 5, N-{3-[1-(4-chloro-2-fluorophenyl)-4-hydroxybutyl]-1H-indazol-7-yl}methanesulfonamide] | 100 to 500
20 | CCC(C#N)(c1ccc(Cl)cc1)c1n[nH]c2c([N+](=O)[O-])cccc12 (stereo not drawn) [Compound 22, 2-(4-chlorophenyl)-2-(7-nitro-1H-indazol-3-yl)butanenitrile] | 500 to 6000
21 | CCC(C#N)(c1ccc(Cl)cc1)c1n[nH]c2c(NS(C)(=O)=O)cccc12 (stereo not drawn) [Compound 23, N-(3-(1-(4-chlorophenyl)-1-cyanopropyl)-1H-indazol-7-yl)methanesulfonamide] | 500 to 6000
22 | CS(=O)(=O)Nc1cccc2c(C(CC#N)c3ccc(Cl)cc3F)n[nH]c12 (stereo not drawn) [Example 6, N-{3-[1-(4-chloro-2-fluorophenyl)-2-cyanoethyl]-1H-indazol-7-yl}methanesulfonamide] | 500 to 6000
23 | CS(=O)(=O)Nc1cccc2c(C(CCC#N)c3ccc(Cl)cc3F)n[nH]c12 (single isomer, unassigned) [Example 2, N-{3-[1-(4-chloro-2-fluorophenyl)-3-cyanopropyl]-1H-indazol-7-yl}methanesulfonamide (Single Enantiomer)] | < 100
24 | Cc1noc(CCC(c2ccc(Cl)cc2F)c2n[nH]c3c(NS(C)(=O)=O)cccc23)n1 (stereo not drawn) [Example 8, N-{3-[1-(4-chloro-2-fluorophenyl)-3-(3-methyl-1,2,4-oxadiazol-5-yl)propyl]-1H-indazol-7-yl}methanesulfonamide] | 500 to 6000
25 | CCC(O)(CC)CCC(c1ccc(Cl)cc1F)c1n[nH]c2c(NS(C)(=O)=O)cccc12 (stereo not drawn) [Example 11, N-{3-[1-(4-chloro-2-fluorophenyl)-4-hydroxy-4-ethylhexyl]-1H-indazol-7-yl}methanesulfonamide] | 500 to 6000
26 | CC(=O)CCC(c1ccc(Cl)cc1F)c1n[nH]c2c(NS(C)(=O)=O)cccc12 (stereo not drawn) [Example 9, N-{3-[1-(4-chloro-2-fluorophenyl)-4-oxopentyl]-1H-indazol-7-yl}methanesulfonamide] | 500 to 6000

Same assay, conditions: enantiomers from chiral SFC OJ-H separation of the racemate

Row | relative MR antagonist activity of the separated enantiomers | Compound
27 | more active | CS(=O)(=O)Nc1cccc2c(C(CCC#N)c3ccc(Cl)cc3F)n[nH]c12 (single isomer, unassigned) [Example 2, N-{3-[1-(4-chloro-2-fluorophenyl)-3-cyanopropyl]-1H-indazol-7-yl}methanesulfonamide (Single Enantiomer)]
